Test results reported in patent US20210380695A1, “STING AGONIST COMBINATION TREATMENTS WITH IMMUNE CHECKPOINT INHIBITORS” (ImmuneSensor Therapeutics, Inc., priority 2020, published 2021).
Read-outs that look alike come from different tables or passages of the source.

Columns and labels:
[1] = Subcutaneous dose escalation and repeat-dose tolerability study of Compound A in cynomolgus monkeys (priming and maintenance doses); assay type: in vivo
Protocol: (§1) Male and female cynomolgus monkeys were assigned to groups and doses of Compound A were administered. Animals were dosed via subcutaneous injection at a volume of 2 mL/kg. The vehicle control article/diluent was phosphate-buffered saline (PBS).
(§2) IFNα, TNFα, and IL-6 levels were measured at 3, 6, and 12 hours post-dosing. Dose related but variable changes were observed. […] IL-6 increases at 3 mg/kg and 10 mg/kg persisted at 12 hours postdose. TNFα levels increased at 3 hours in the 1 mg/kg group. […] The cytokine responses are consistent with the predicted STING pathway activation. Morbidity was observed within 1 day of administration of the 10 mg/kg/dose; as such, 3 mg/kg was selected as the high dose for the following repeat-dose phase (Phase II).
(§3) In Phase II, 3 weekly administrations of 0.3 mg/kg of Compound A were tolerated. The 3 mg/kg dose in naïve animals was not tolerated and led to clinical observations of morbidity or death within 1 day of dosing. The findings were consistent with Compound A-mediated inflammatory response that was considered the probable cause of death.
(§4) A priming dose of 0.1 mg/kg/day was administered 4 days prior to the first dose of 1.0 mg/kg/day Compound A to potentially allow a tolerance to develop to avoid the acute mortality noted during Phase II following administration of 3.0 mg/kg/day of Compound A to naïve animals. […] Increased plasma levels of IL-6 were noted 3 hours and 6 hours postdose.
Edema is consistent with an inflammatory related pathology and the exaggerated pharmacology of the mode of action of Compound A. Administration of 3 weekly doses of 1.0 mg/kg/day (preceded by a priming dose of 0.1 mg/kg) or 0.6 mg/kg (without a priming dose) was tolerated. Animals tolerated an escalation to 3.0 mg/kg in Phase I, due to previous administrations at lower levels that allowed a tolerance to develop.

STING pathway = assay: Plasma cytokine and chemokine levels after subcutaneous Compound A in cynomolgus monkeys; assay type: in vivo; settings: for plasma levels of IL-6: 3 hours and 6 hours postdose; for plasma IFNα levels: male or female
Protocol: as §1, §2, §3, §4

[2] = Exposure (Cmax, AUC) of Compound A in cynomolgus monkeys; assay type: in vivo
Protocol: as §1, §3

B16F10 melanoma cells [3] = assay: B16F10 melanoma tumor model in C57BL6 mice: Compound A with anti-CTLA4 and/or anti-PD-L1 antibody; assay type: in vivo
Protocol: FIG. 2, panels A and B show the effect of a triple combination of Compound A (I.T.), PD-L1 antibody (I.P.), and anti-CTLA4 antibody (I.P.). Groups of C57BL6 mice (n=5) bearing B16F10 tumors were treated as indicated on day 6, 10, and 14 after tumor implantation. […] Data are shown as mean±SEM.
In the same set of experiments, the combination of 0.3 μg of Compound A (I.T.) and 200 μg of anti-PD-L1 antibody (I.P.) was also tested with and without the combination of 200 μg of anti-CTLA4 antibody (I.P.).

B16F10 melanoma cells [4] = settings: intratumorally
Protocol: Groups of C57BL6/J mice (n=5) were implanted subcutaneously with B16F10 melanoma cells into the right flank on day 0. On day 6, 9, 12, and 15, mice were treated intratumorally with anti-CTLA4 antibody or DMXAA, or the combination of both anti-CTLA4 antibody and DMXAA. […] Data are shown as mean±SEM.
Female C57BL6 mice at the age of 7-8 weeks were implanted on day 0 with 10^6 of B16F10 melanoma cells (ATCC CRL-6475) subcutaneously on their right flanks. On day 6, tumors were measured and mice were regrouped so that each group (n=5) had similar average tumor volumes (˜120 mm^3). On day 6, 9, 12, 15, mice were treated intratumorally with 50 μg of anti-CTLA4 antibody (BioXcell, BE0614), or 50 μg of DMXAA (Sigma-Aldrich, D5817), or the combination of both the anti-CTLA4 antibody and DMXAA. Mock treated group were injected with PBS intratumorally. Tumor volumes were measured every 2-3 days and mouse survival was monitored daily.

[5] = Phase I dose escalation, subcutaneous injection
[6] = Phase II, 3 mg/kg dose in naïve animals
[7] = alone, I.T., day 6, 10, 14: 0.3 μg Compound A or 50 μg anti-CTLA4 antibody
[8] = combination 0.3 μg Compound A (I.T.) with 10 μg anti-CTLA4 antibody (I.T.)
[9] = combination 0.3 μg Compound A (I.T.) with 50 μg anti-CTLA4 antibody (I.T.)
[10] = alone, day 6, 9, 12, 15: 50 μg anti-CTLA4 antibody or 50 μg DMXAA
[11] = combination 50 μg anti-CTLA4 antibody and 50 μg DMXAA

Nc1nc2c(ncn2[C@@H]2O[C@@H]3COP(=O)(O)OC4C(O)[C@H](n5cnc6c(N)ncnc65)O[C@@H]4COP(=O)(O)OC2C3OCC(F)(F)F)c(=O)[nH]1 (stereo partly drawn) [Compound A]
tolerability ([1]; 3 weekly doses of 0.6 mg/kg without a priming dose): tolerated | tolerability ([1]; 3 weekly doses of 1.0 mg/kg/day preceded by a priming dose of 0.1 mg/kg): tolerated | dose level tolerated on escalation [1, 5]: up to 3.0 mg/kg/dose | findings on escalation up to 3.0 mg/kg/dose [1, 5]: limited to increased body temperature and elevated IFNα, IL-6, and TNFα cytokine levels | time to morbidity after administration ([1]; Phase I, 10 mg/kg/dose): ≤ 1 days | time to morbidity or death after dosing [1, 6]: ≤ 1 days | tolerability [1, 6]: not tolerated | tolerability ([1]; Phase II, 3 weekly administrations of 0.3 mg/kg): tolerated | survival ([1]; Phase III, three weekly doses of 0.6 or 1.0 mg/kg/day (1.0 preceded by priming dose of 0.1 mg/kg/day)): survived until scheduled sacrifice | compound-related findings ([1]; animals administered 0.6 or 1.0 mg/kg/day): limited to a transient body temperature increase and mild to moderate clinical and anatomic pathology findings | dose not tolerated (acute morbidity and/or death, pulmonary edema) ([1]; naïve animals): ≥ 3.0 mg/kg | IFNα levels (STING pathway; Phase I, 1 mg/kg and 3 mg/kg groups, 3 hours and 6 hours post dosing): Moderate levels | TNFα levels (STING pathway; Phase I, 1 mg/kg group, 3 hours): increased | TNFα levels (STING pathway; Phase I, 3 mg/kg and 10 mg/kg groups): Lower levels | IFNα levels (STING pathway; Phase I, 3 mg/kg and 10 mg/kg, 12 hours after dosing): decreased 12 hours after dosing, but did not return to pre-dose levels | IL-6 increases (STING pathway; Phase I, 3 mg/kg and 10 mg/kg, 12 hours postdose): persisted | IFNα levels (STING pathway; Phase I, 10 mg/kg group): Higher levels | plasma IL-6 levels (STING pathway; Phase I, all groups, 3 and 6 hours post dosing): Increases | IL-12, G-CSF, and IFNγ levels (STING pathway; Phase II): sporadic increases | changes in pro-inflammatory cytokines and chemokines MCP-1 and IP-10 (STING pathway; Phase II): suggestive of an inflammatory response with resolution by 24 hours postdose | plasma IL-1ra, IL-6, and IFNα cytokine levels (STING pathway; Phase II, 3 mg/kg dose level, 3 and 6 hours): dose-dependent increases | plasma levels of IL-6 (STING pathway; Phase III, 0.1 mg/kg/day): Increased | IP-10 (STING pathway; Phase III, 0.1 mg/kg/day, 3 hours post dosing, male and female): Slight elevation | levels of TNFα (STING pathway; Phase III, 0.1 mg/kg/day, 6 hours postdose in male, 3 and 6 hours postdose in female): Elevated levels | TNFα levels (STING pathway; Phase III, 0.1 mg/kg/day, 24 hours post dosing): returned to non-detectable level | IL-6 levels (STING pathway; Phase III, 0.1 mg/kg/day, 24 hours postdose): returned to a non-detectable level | plasma IFNα levels (STING pathway; Phase III, 0.1 mg/kg/day): did not cause significant increase | plasma levels of IL-6 (STING pathway; Phase III, 0.6 mg/kg/day): Increased | levels of TNFα (STING pathway; Phase III, 0.6 mg/kg/day, 6 hours postdose in male, 1.5, 3, and 6 hours postdose in female): Elevated levels | plasma IFNα levels (STING pathway; Phase III, 0.6 mg/kg/day): did not cause significant increase | IP-10 (STING pathway; Phase III, 0.6 mg/kg/day, throughout the time course): No significant elevation | IP-10 level (STING pathway; Phase III, 1 mg/kg/day, 1.5, 3, and 6 hours postdose): no increased IP-10 level | TNFα levels (STING pathway; Phase III, 1 mg/kg/day, 1.5, 3, and 6 hours postdose, male and female): Elevated | IFNα levels (STING pathway; Phase III, 1 mg/kg/day, 1.5 and 3 hours postdose): did not cause significant change | IL-6 levels (STING pathway; Phase III, 1 mg/kg/day, 3 and 6 hours postdose, male and female): Marked increase | IFNα levels (STING pathway; Phase III, 1 mg/kg/day, 6 hours postdose, male and female): elevated levels | increase of exposure (mean Cmax, AUC0-2, AUC0-8, AUC0-24) with dose ([2]; 0.3 to 3 mg/kg/day, Day 1 of Phase II): generally dose-proportional | sex differences in mean Cmax, AUC0-2, AUC0-8, and AUC0-24 values ([2]; male vs female): less than 2 fold | accumulation after multiple doses ([2]; multiple doses of 0.3 mg/kg/day): No accumulation | mouse survival (B16F10 melanoma cells [3]; [7]): extended mouse survival | tumor growth (B16F10 melanoma cells [3]; [7]): reduced tumor growth | mouse survival compared to both agents alone (B16F10 melanoma cells [3]; [8]): improved mouse survival | tumor growth compared to both agents alone (B16F10 melanoma cells [3]; [8]): further suppressed tumor growth | suppression of tumor growth compared to 0.3 μg Compound A (I.T.) with 200 μg anti-CTLA4 antibody (I.P.) (B16F10 melanoma cells [3]; [9]): more effective | tumor remission (B16F10 melanoma cells [3]; [9]): more dramatic tumor remission | reduction in tumor growth compared to 0.3 μg Compound A (I.T.) with 50 μg anti-CTLA4 antibody (I.T.) (B16F10 melanoma cells [3]; combination 0.3 μg Compound A (I.T.) with 200 μg anti-CTLA4 antibody (I.P.)): inferior | reduction in tumor growth compared to 0.3 μg Compound A (I.T.) with 50 μg anti-CTLA4 antibody (I.T.) (B16F10 melanoma cells [3]; combination 0.3 μg Compound A (I.T.) with 200 μg anti-PD-L1 antibody (I.P.)): inferior | anti-tumor effect compared to 200 μg anti-CTLA4 antibody administered systemically (B16F10 melanoma cells [3]; combination intratumoral Compound A with 10 μg anti-CTLA4 antibody (I.T.)): similar | tumor size and overall survival compared to 200 μg anti-CTLA4 antibody administered systemically (B16F10 melanoma cells [3]; combination intratumoral Compound A with 50 μg anti-CTLA4 antibody (I.T.)): significant benefits | effect on tumor growth compared to 0.3 μg Compound A (I.T.) with 50 μg anti-CTLA4 antibody (I.T.) (B16F10 melanoma cells [3]; triple combination 0.3 μg Compound A (I.T.), 200 μg anti-PD-L1 antibody (I.P.), 200 μg anti-CTLA4 antibody (I.P.)): comparable

Cc1ccc2c(=O)c3cccc(CC(=O)O)c3oc2c1C [DMXAA]
mice survival (B16F10 melanoma cells [4]; [10]): prolonged survival | tumor growth (B16F10 melanoma cells [4]; [10]): greatly suppressed tumor growth | controlling tumor growth compared to monotherapy (B16F10 melanoma cells [4]; [11]): significant improved effect | extending survival compared to monotherapy (B16F10 melanoma cells [4]; [11]): significant improved effect
